Source: patent US11492347B2 (ENYO PHARMA, priority 2018, dated 2022)

Test system: H1N1 (influenza A/New Caledonia/20/99)
Test: microbe, parasite or virus in culture
Format: cell-based
Settings: H1N1, A549, 48 h

## CC1(C)CCc2c(sc(NC(=O)c3ccccn3)c2C(=O)O)C1 [Compound #96, 6,6-Dimethyl-2-(pyridine-2-carbonylamino)-5,7-dihydro-4H-benzothiophene-3-carboxylic acid]
  IC50: 0.8 µM

## COCCNc1ccc(C(=O)Nc2sc3c(c2C(=O)O)C(C)CC(C)(C)C3)cc1 (stereo not shown) [Compound #145, 2-1-[[4-(2-Methoxyethylamino)benzoyl]amino]-4,6,6-trimethyl-5,7-dihydro-411-benzothiophene-3-carboxylic acid]
  IC50: 0.032 µM

## CC1CC(C)(C)Cc2sc(NC(=O)c3ccc(N(C)C4CCOCC4)cc3)c(C(=O)O)c21 (stereo not shown) [#171]
  IC50: 0.0063 µM

## CC1(C)Cc2c(sc(NC(=O)c3ccc(NCC4COC4)cc3)c2C(=O)O)C(C)(C)C1 [Compound #59, 5,5,7,7-Tetramethyl-2-[[4-(oxetan-3-ylmethylamino)benzoyl]amino]-4,6-dihydrobenzothiophene-3-carboxylic acid]
  IC50: 0.01 µM

## CN(CC1CCOCC1)c1ccc(C(=O)Nc2sc3c(c2C(=O)O)CC(C)(C)CC3(C)C)cc1 [Compound #152, 5,5,7,7-Tetramethyl-2-[[4-[methyl(tetrahydropyran-4-ylmethyl)amino]benzoyl]amino]-4,6-dihydrobenzothiophene-3-carboxylicacid]
  IC50: 0.0005 µM

## COc1cccc(C(=O)Nc2sc3c(c2C(=O)O)CCC(C)(C)C3)c1 [Compound #21, 2-[(3-Methoxybenzoyl)amino]-6,6-dimethyl-5,7-dihydro-4H-benzothiophene-3-carboxylic acid]
  IC50: 0.0558 µM

## O=C(Nc1sc2c(c1C(=O)O)C1CCC2C1)c1ccccc1 (stereo not shown) [Compound #28, 2-Benzamido-4,5,6,7-tetrahydro-4,7-methanobenzo[b]thiophene-3-carboxylic acid]
  IC50: 1.27 µM

## CC1(C)CCCc2sc(NC(=O)c3ccccc3)c(C(=O)O)c21 [Compound #42, 2-Benzamido-4,4-dimethyl-6,7-dihydro-5H-benzothiophene-3-carboxylic acid]
  IC50: 0.192 µM

## CC1(C)CCc2c(sc(NC(=O)c3cnc(N4CCOCC4)nc3)c2C(=O)O)C1 [#208, 6,6-Dimethyl-2-[(2-morpholinopyrimidine-5-carbonyl)amino]-5,7-dihydro-4H-benzothiophene-3-carboxylic acid]
  IC50: 0.74 µM

## CC1(C)CCc2c(sc(NC(=O)c3ccnc(N4CCOCC4)c3)c2C(=O)O)C1 [#222, 6,6-Dimethyl-2-[(2-morpholinopyridine-4-carbonyl)amino]-5,7-dihydro-4H-benzothiophene-3-carboxylic acid]
  IC50: 0.051 µM

## CC1(C)CCc2c(sc(NC(=O)c3ccc(F)cc3F)c2C(=O)O)C1 [Compound #17, 2-[(2,4-Difluorobenzoyl)amino]-6,6-dimethyl-5,7-dihydro-4H-benzothiophene-3-carboxylic acid]
  IC50: 0.26 µM

## O=C(Nc1sc2c(c1C(=O)O)CCC1(CC1)C2)c1ccccc1 [Compound #29, 2-Benzamidospiro[5,7-dihydro-4H-benzothiophene-6,1′-cyclopropane]-3-carboxylic acid]
  IC50: 0.09 µM

## COc1ccc(C(=O)Nc2sc3c(c2C(=O)O)C(C)(C)CC3)cc1OC [Compound #38, 2-[(3,4-Dimethoxybenzoyl)amino]-4,4-dimethyl-5,6-dihydrocyclopenta[b]thiophene-3-carboxylic acid]
  IC50: 0.339 µM

## CC1(C)CCc2sc(NC(=O)c3ccc(N4CCOCC4)nc3)c(C(=O)O)c2C1 [Compound #65, 5,5-Dimethyl-2-[(6-morpholinopyridine-3-carbonyl)amino]-6,7-dihydro-4H-benzothiophene-3-carboxylic acid]
  IC50: 0.2 µM

## CC1CC(C)(C)Cc2sc(NC(=O)c3ccc(NCC4CCOCC4)cc3)c(C(=O)O)c21 (stereo not shown) [Compound #157, 4,6,6-Trimethyl-2-[[4-(tetrahydropyran-4-ylmethylamino)benzoyl]amino]-5,7-dihydro-4H-benzothiophene-3-carboxylic acid]
  IC50: 0.005 µM

## CC1(C)Cc2c(sc(NC(=O)c3ccc(OCC4COC4)cc3)c2C(=O)O)C(C)(C)C1 [#167, 5,5,7,7-Tetramethyl-2-[[4-(oxetan-3-ylmethoxy)benzoyl]amino]-4,6-dihydrobenzothiophene-3-carboxylic acid]
  IC50: 0.108 µM

## CC1(C)CCc2sc(NC(=O)c3ccc(N4CCOCC4)cc3)c(C(=O)O)c2C1 [Compound #159, 5,5-Dimethyl-2-[(4-morpholinobenzoyl)amino]-6,7-dihydro-4H-benzothiophene-3-carboxylic acid]
  IC50: 0.018 µM

## COc1ccc(C(=O)Nc2sc3c(c2C(=O)O)CCC(C)(C)C3)nc1OC [Compound #94, 2-[(5,6-Dimethoxypyridine-2-carbonyl)amino]-6,6-dimethyl-5,7-dihydro-4H-benzothiophene-3-carboxylic acid]
  IC50: 0.66 µM

## CC1(C)Cc2c(sc(NC(=O)c3ccc(OC4CCOCC4)cc3)c2C(=O)O)C(C)(C)C1 [#170, 5,5,7,7-Tetramethyl-2-[(4-tetrahydropyran-4-yloxybenzoyl)amino]-4,6-dihydrobenzothiophene-3-carboxylic acid]
  IC50: 0.035 µM

## COCCNc1ccc(C(=O)Nc2sc3c(c2C(=O)O)CC(C)(C)CC3)cc1 [#173, 2-[[4-(2-Methoxyethylamino)benzoyl]amino]-5,5-dimethyl-6,7-dihydro-4H-benzothiophene-3-carboxylic acid]
  IC50: 0.024 µM

## Cn1cc(C(=O)Nc2sc3c(c2C(=O)O)CC(C)(C)CC3)cn1 [#202, 5,5-Dimethyl-2-[(1-methylpyrazole-4-carbonyl)amino]-6,7-dihydro-4H-benzothiophene-3-carboxylic acid]
  IC50: 0.9 µM

## CC1(C)Cc2c(sc(NC(=O)c3ccc(C4CCOCC4)cc3)c2C(=O)O)C(C)(C)C1 [#174, 5,5,7,7-Tetramethyl-2-[(4-tetrahydropyran-4-ylbenzoyl)amino]-4,6-dihydrobenzothiophene-3-carboxylic acid]
  IC50: 0.039 µM

## CC1(C)Cc2c(sc(NC(=O)c3ccc(N4CC5(COC5)C4)cc3)c2C(=O)O)C(C)(C)C1 [Compound #143, 5,5,7,7-Tetramethyl-2-[[4-(2-oxa-6-azaspiro[3.3]heptan-6-yl)benzoyl]amino]-4,6-dihydrobenzothiophene-3-carboxylic acid]
  IC50: 0.16 µM

## CC1(C)Cc2c(sc(NC(=O)c3ccccn3)c2C(=O)O)C(C)(C)C1 [Compound #90, 5,5,7,7-Tetramethyl-2-(pyridine-2-carbonylamino)-4,6-dihydrobenzothiophene-3-carboxylic acid]
  IC50: 0.6 µM

## CC1(C)CCc2c(sc(NC(=O)c3ccc(OC(F)(F)F)cc3)c2C(=O)O)C1 [Compound #24, 6,6-Dimethyl-2-[[4-(trifluoromethoxy)benzoyl]amino]-5,7-dihydro-4H-benzothiophene-3-carboxylic acid]
  IC50: 0.16 µM

## COCCN(C)c1ccc(C(=O)Nc2sc3c(c2C(=O)O)CC(C)(C)CC3(C)C)cc1 [Compound #150, 2-[[4-[2-Methoxyethyl(methyl)amino]benzoyl]amino]-5,5,7,7-tetramethyl-4,6-dihydrobenzothiophene-3-carboxylic acid]
  IC50: 0.0039 µM

## Cc1ccccc1C(=O)Nc1sc2c(c1C(=O)O)CCC(C#N)(c1ccccc1)C2 (stereo not shown) [Compound #105, 6-Cyano-2-[(2-methylbenzoyl)amino]-6-phenyl-5,7-dihydro-4H-benzothiophene-3-carboxylic acid]
  IC50: 1.08 µM

## COC1CC(N(C)c2ccc(C(=O)Nc3sc4c(c3C(=O)O)CC(C)(C)CC4(C)C)cc2)C1 (stereo not shown) [#165, 2-[[4-[(3-Methoxycyclobutyl)-methyl-amino]benzoyl]amino]-5,5,7,7-tetramethyl-4,6-dihydrobenzothiophene-3-carboxylic acid]
  IC50: 0.0117 µM

## CC(=O)N1CC(Nc2ccc(C(=O)Nc3sc4c(c3C(=O)O)CC(C)(C)CC4(C)C)cc2)C1 [Compound #133, 2-[[4-[(1-Acetylazetidin-3-yl)amino]benzoyl]amino]-5,5,7,7-tetramethyl-4,6-dihydrobenzothiophene-3-carboxylic acid]
  IC50: 0.75 µM

## COCCCNc1ccc(C(=O)Nc2sc3c(c2C(=O)O)CC(C)(C)CC3(C)C)cc1 [Compound #140, 2-[[4-(3-Methoxypropylamino)benzoyl]amino]-5,5,7,7-tetramethyl-4,6-dihydrobenzothiophene-3-carboxylic acid]
  IC50: 0.0034 µM

## CC1(C)Cc2c(sc(NC(=O)c3ccc(NCC4CCCOC4)cc3)c2C(=O)O)C(C)(C)C1 (stereo not shown) [Compound #141, 5,5,7,7-Tetramethyl-2-[[4-(tetrahydropyran-3-ylmethylamino)benzoyl]amino]-4,6-dihydrobenzothiophene-3-carboxylic acid]
  IC50: 0.0033 µM

## COc1ccc(C(=O)Nc2sc3c(c2C(=O)O)CCC(C)(C)C3)nc1 [Compound #25, 2-[(5-Methoxypyridine-2-carbonyl)amino]-6,6-dimethyl-5,7-dihydro-4H-benzothiophene-3-carboxylic acid]
  IC50: 0.09 µM

## CC1(C)CCc2sc(NC(=O)c3ccc(N4CCOCC4)cc3)c(C(=O)O)c21 [Compound #41, 4,4-Dimethyl-2-[(4-morpholinobenzoyl)amino]-5,6-dihydrocyclopenta[b]thiophene-3-carboxylicacid]
  IC50: 0.105 µM

## COCCOc1ccc(C(=O)Nc2sc3c(c2C(=O)O)CC(C)(C)CC3(C)C)cc1 [#168, 2-[[4-(2-Methoxyethoxy)benzoyl]amino]-5,5,7,7-tetramethyl-4,6-dihydrobenzothiophene-3-carboxylic acid]
  IC50: 0.0232 µM

## COc1ccc(C(=O)Nc2sc3c(c2C(=O)O)CC(C)(C)CC3)cc1OC [Compound #27, 2-[(3,4-Dimethoxybenzoyl)amino]-5,5-dimethyl-6,7-dihydro-4H-benzothiophene-3-carboxylic acid]
  IC50: 0.04 µM

## CC1(C)Cc2c(sc(NC(=O)c3ccc(NC4COC4)cc3)c2C(=O)O)C(C)(C)C1 [Compound #139, 5,5,7,7-Tetramethyl-2-[[4-(oxetan-3-ylamino)benzoyl]amino]-4,6-dihydrobenzothiophene-3-carboxylic acid]
  IC50: 0.011 µM

## CCOC1CN(c2ccc(C(=O)Nc3sc4c(c3C(=O)O)CC(C)(C)CC4(C)C)cc2)C1 [Compound #156, 2-[[4-(3-Ethoxyazetidin-1-yl)benzoyl]amino]-5,5,7,7-tetramethyl-4,6-dihydrobenzothiophene-3-carboxylic acid]
  IC50: 0.002 µM
